# Source: patent US5854004A, “Process for screening substances capable of modulating a receptor-dependent cellular signal transmission path” (Boehringer Ingleheim GmbH, priority 1991, dated 1998)
# Legend:
# [1] = target: T1, human dopamine D1-receptor (Homo sapiens, UniProt P21728); test: Induction of pADneo2-C6-BGL (CRE) via dopamine-D1-receptor in co-transfected COS-7 cells
# [2] = system: A549 cells; conditions: Voraberger et al., 1991; cited from earlier work
# [3] = target: human muscarinic M3-receptor (Homo sapiens, UniProt P20309); format: cell-based
# [4] = system: HeLa cells; test: Induction of TRE-sensor-DNA (luciferase) in transiently transfected pretest cells, HeLa; conditions: 18 h
# Method: (§1) Approximately 1×10^7 cells per transfection were detached from the surface of the culture dish using trypsin and centrifuged for 5 minutes at 1200 rpm at ambient temperature (Heraeus Minifuge), washed once with 5 ml of serum-free medium, centrifuged for 5 minutes at 1200 rpm and suspended in 1 ml of serum-free medium. Then the cells were mixed with 250 μg/ml DEAE-dextrane, 5 μg plasmid DNA and 50 μg/ml chloroquin, incubated for 30 minutes at 37° C., washed once with medium containing no FCS and incubated overnight at 37° C. with 10 ml of fresh serum-containing medium. Then the medium was changed and after 4 hours the cells were induced, either with 10 ng TPA/ml medium or with 20 μM forskolin. […] The cells were lysed by the addition of 100 μl lysing buffer (1% Triton X-100, 25 mM glycylglycine pH 7.8, 15 mM MgSO4, 4 mM EDTA and 1 mM […]), the lysate was centrifuged for 5 minutes and the supernatant was transferred into a fresh test tube. […] The measuring time for light emission was 10 seconds.
# (§2) The cell lines A549, HeLa and COS-7 were transiently transfected as described above by the addition of plasmid pBHluc1.3 and induced by the addition of TPA. Cells which were only transfected but not induced were used as a negative control.
# (§3) The cell lines A549, HeLa and COS-7 were transiently transfected by the addition of plasmid pADneo(3TRE)BGluci and induced by the addition of TPA or forskolin. Once again, cells which were only transfected but not induced were used as a negative control.
# [5] = target: T1, human dopamine D1-receptor; test: Induction of pBHluc1.3 (TRE) via dopamine-D1-receptor in co-transfected COS-7 cells; format: cell-based; conditions: 10 ng/ml TPA or 1 μM apomorphine, 18 h
# [6] = system: cell line CHO C6-13; test: Luciferase expression in CRE-pretest cell line CHO C6-13; conditions: 3 hours treatment, FIG. 33
# Method: The transfection by electroporation was carried out as follows: after removal of the medium the cells were detached from the surface by means of a trypsin/PBS solution, suspended in medium and pelleted for 5 minutes at 250×g. The cells were washed in HBS (10 mM HEPES pH 7.4, 150 mM NaCl) and pelleted by centrifuging. The cells were suspended in HBS in a density of 1×10^7 cells/ml. 0.8 ml of cell suspension were mixed with 20 μg of DNA of the plasmid pADneo2-C6-BGL linearised with ScaI and transferred into an electroporation dish. […] After the electroporation the cells were diluted in the medium mentioned above, 20,000 cells per 90 mm culture dish was sown and incubated overnight at 37° C.
# Two batches of each were treated with 20 μM forskolin and incubated for a further 5 hours at 37° C. Then the medium was removed from all the cells and the cells were washed with PBS.
# Cells of the cell line CHO C6-13 were treated for 3 hours with various substances which alter the intracellular concentration of cAMP or IP3 /DAG or simulate a change in concentration, and also treated with receptor-specific agonists which influence the above-mentioned signal transduction mechanisms.
# [7] = system: cell line A20; test: Luciferase induction in stable TRE-pretest cell line A20 (A549, pBHluc1.3)
# Method: In order to produce a stable (pre-)test cell line for substances which influence the expression of the luciferase gene by direct or receptor-mediated modulation of the IP3 /DAC-signal transduction pathway, A549 cells were simultaneously transfected with the plasmid pBHluc1.3 and the selection plasmid pRSVneo by electroporation as follows: after removal of the medium the cells were detached from the surface by means of a trypsin/PBS solution, suspended in medium and sedimented for 5 minutes at 250×g. […] 0.8 ml of cell suspension were combined with 20 μg of pBHluc1.3 and 2 μg of pRSVneo. Both plasmids had previously been linearised with BamHI.
# (§4) 15-20 days after transfection, individual cell clones were transferred into 96-well microtitre plates and further cultivated. […] Approximately 40,000 cells in each clone were sown, in a procedure repeated 6 times, in 200 μl per well of a light-impervious 96-well microtitre plate coated with tissue culture (Microlite™, Dynatech Laboratories) and incubated overnight at 37° C. Three mixtures were treated with 10 ng TPA/ml and incubated for a further 8 hours. Then the medium was removed and the cells were washed twice with PBS.
# (§5) The pretest cell line A20 was transfected, as described under a), by electroporation with the plasmid pAHyg-NK2, which had previously been linearised with BglII. From the day after transfection onwards, the cells were grown in selection medium, as used for the cell line A20 and additionally enriched with 150 μg/ml hygromycin B (Sigma). Individual clones were tested for inducibility of the luciferase activity as described under a).
# [8] = system: COS-7 cells; test: Induction of TRE-sensor-DNA (luciferase) in transiently transfected pretest cells, COS-7
# Method: as §1, §2, §3
# (§6) The cell lines COS-7 and A549 were transiently transfected by the addition of plasmid pADneo(3×TREd16)BGluci, pADneo(3×TREd21)BGluci, pADneo(3×TREd24)BGluci, pADneo(3×TREd34)BGluci, pADneo(6×TREd16)BGluci, pADneo(6×TREd21)BGluci, pADneo(6×TREd24)BGluci or pADneo(6×TREd34)BGluci and induced by the addition of TPA or forskolin.
# [9] = target: T2, human neurokinin 2-receptor (Homo sapiens, UniProt P21452); test: Luciferase activity in NK2-test cell line A20/NK2-122; conditions: A20/NK2-122, depending on the dose
# T2 sequence (P21452 1-398): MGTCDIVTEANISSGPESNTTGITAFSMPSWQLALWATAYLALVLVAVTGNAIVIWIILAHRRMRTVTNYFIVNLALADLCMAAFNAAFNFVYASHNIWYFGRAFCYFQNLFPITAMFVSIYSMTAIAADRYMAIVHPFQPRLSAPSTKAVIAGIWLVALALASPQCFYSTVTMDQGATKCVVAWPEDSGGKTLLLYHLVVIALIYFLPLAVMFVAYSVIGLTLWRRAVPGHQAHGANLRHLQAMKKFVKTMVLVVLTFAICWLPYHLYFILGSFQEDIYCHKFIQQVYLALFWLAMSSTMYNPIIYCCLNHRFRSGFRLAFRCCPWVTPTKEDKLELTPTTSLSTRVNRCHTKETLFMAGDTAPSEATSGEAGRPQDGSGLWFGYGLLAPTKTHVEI
# Method: as §4
# This Example illustrates the preparation of a test cell line for the human neurokinin 2 (NK2)-receptor which is coupled to the phospholipase C-signal transduction pathway. This test cell line makes it possible, by measurement of the luciferase activity, to identify substances which modulate the intracellular IP3 /DAG concentrations, depending on the receptor.
# as §5
# [10] = system: A549 cells; test: Induction of TRE-sensor-DNA (luciferase) in transiently transfected pretest cells, A549
# Method: as §1, §2, §3, §6
# [11] = target: T1, human dopamine D1-receptor; test: Luciferase activity in dopamine D1-receptor test cell line CHO 13D1-38
# Method: The cell line CHO C6-13 characterised above was transfected, as described under a), by electroporation with plasmid pAD-CMV2:D1, which had previously been linearised with FspI.
# For the use of test cell lines in an automatic screening system with a high throughput rate it is advantageous to use microtitre plates having 96 wells per plate. For this purpose, 60,000 cells (CHO C6-13 or CHO 13D1-38) were sown in 200 μl medium per well in light-impermeable microtitre plates coated with tissue culture
# (Microlite™, Dynatech Labroatories) and incubated overnight at 37° C. Then various chemicals were added to the cells and they were incubated for a certain length of time (usually 3 hours). After removal of the medium the cells were washed with PBS, lysed in 1% Triton X-100 and the luciferase activity was measured in a 96-well luminometer (ML-1000, Dynatech) (FIG. 36).
# In order to simulate a screening process in which the test substances are preferably supplied in a uniform solvent, a final concentration of 1% DMSO was used in this experiment.
# [12] = target: T3, human 5HT2-receptor (Homo sapiens, UniProt P28223); test: Induction of pBHluc1.3 (TRE) via 5-HT2-receptor in co-transfected COS-7 cells; format: cell-based
# Method: (§7) Induction was carried out with i) 20 μM forskolin (Sigma P8139), ii) 10 μα-methylserotonin-maleate (RBI M-110), and iii) 10 μα-methylserotonin-maleate and 10 μM ketanserin-tartrate (RBI S-006). […] It follows, from the above results, that, depending on 5-HT2 -receptors, only regulation elements which respond to IP3 /DAG (TRE), but not regulation elements which respond to cAMP (CRE) are selectively activated.
# [13] = target: T3, human 5HT2-receptor; test: Induction of pADneo2-C6-BGL (CRE) via 5-HT2-receptor in co-transfected COS-7 cells; format: cell-based; conditions: 20 μM forskolin or 10 μ α-methylserotonin-maleate
# Method: as §7
# [14] = target: T3, human 5HT2-receptor; test: cell-based; conditions: read-out: induction of luciferase activity, clone A20/5HT2-11
# Description: The human 5HT2-receptor is another example of a receptor coupled to the phospholipase C-signal transduction pathway. The TRE-cell line A20 is therefore also suitable in this case as a starting cell line for establishing a test cell line in order to discover substances which modulate the activity of the 5HT2-receptor.
# The plasmid pAHyg-5HT2, linearised with BglII, was for this purpose transfected into the cell line A20 by electroporation as described under a) and grown in selection medium.
# For this purpose the cells were simultaneously treated with a constant amount of serotonin (1 μg) and increasing amounts of antagonist.
# [15] = 10 ng TPA/ml or 20 μM forskolin
# [16] = COS-7, 10 ng TPA/ml or 20 μM forskolin, 18 h
smiles,measurement,setting,value
CN1CCc2cc(Cl)c(O)cc2[C@@H](c2ccccc2)C1 [SCH23390],prevention of agonist-mediated induction (CRE),[1]; 1 μM apomorphine and 1 μM SCH23390,prevented
"CCCCCCCCCCCCCC(=O)O[C@@H]1[C@@H](C)[C@@]2(O)[C@@H](C=C(CO)C[C@]3(O)C(=O)C(C)=C[C@@H]23)[C@@H]2C(C)(C)[C@]12OC(C)=O [TPA, phorbol-12-myristat-13-acetate]",induction of 1.3 kb ICAM-1 fragment / pBHluc1.3,[2],can be induced by TPA
same,induction of luciferase expression,[3],induced both by TPA and by carbachol
same,induction of pADneo(3TRE)BGluci,[4]; [15],can be induced in the tested cells by TPA
same,induction of pBHluc1.3 by TPA or forskolin,[4]; [15],could also be induced by TPA
same,fold induction at 0.01 µg/mL,"[4]; Homo sapiens, read-out: induction of pBHluc1.3 (luciferase)",> 10
same,induction of luciferase expression (TRE),[5],induced by TPA
same,change in luciferase expression/activity,[6],did not bring about any significant change in the luciferase activity
same,maximum induction of luciferase activity by TPA,"[7]; A20, depending on the dose",≤ 18 times
same,fold induction at 0.01 µg/mL,"[7]; Homo sapiens, A549, 8 h, read-out: inducibility of luciferase activity, clone A20",15 to 20
same,induction of pADneo(6×TREdx)BGluci depending on spacing of TRE-elements,"[8]; COS-7, 10 ng TPA/ml",higher when the spacing of the TRE-elements is smaller
same,"induction of pADneo(nTREdx)BGluci, 6 versus 3 TRE-elements","[8]; COS-7, 10 ng TPA/ml",the induction with TPA for the constructions with 6 TRE-elements is greater than for the constructions with 3 TRE-elements
same,induction of pADneo(3TRE)BGluci,[8]; [16],can be induced in the tested cells by TPA
same,induction of pBHluc1.3 by TPA or forskolin,[8]; [16],could also be induced by TPA
same,fold induction at 0.01 µg/mL,"[8]; Primates, COS-7, 18 h, read-out: induction of pBHluc1.3 (luciferase)",> 10
same,maximum induction of luciferase activity by TPA,[9],≤ 18 times
same,induction of pADneo(6×TREdx)BGluci depending on spacing of TRE-elements,"[10]; A549, 10 ng TPA/ml",higher when the spacing of the TRE-elements is smaller
same,"induction of pADneo(nTREdx)BGluci, 6 versus 3 TRE-elements","[10]; A549, 10 ng TPA/ml",the induction with TPA for the constructions with 6 TRE-elements is greater than for the constructions with 3 TRE-elements
same,induction of pADneo(3TRE)BGluci,"[10]; A549, 10 ng TPA/ml or 20 μM forskolin, 18 h",can be induced in the tested cells by TPA
same,fold induction at 0.01 µg/mL,"[10]; Homo sapiens, A549, 18 h, read-out: induction of pBHluc1.3 (luciferase)",> 10
CN1CCc2cccc3c2[C@H]1Cc1ccc(O)c(O)c1-3 [apomorphine],"increase in luciferase activity, clone CHO 13D1-38","[11]; 10 μM apomorphine, 4 hours",highest increase in luciferase activity
same,concentration which brings about maximum induction of the luciferase reporter gene,[11]; apomorphine final concentration,1 µM
same,time after stimulation at which increased luciferase activity was measured,"[11]; apomorphine, FIG. 37A",one
same,time to maximum luciferase activation,"[11]; apomorphine, FIG. 37A",2.5 h
same,time up to which luciferase activation remained constant,"[11]; apomorphine, FIG. 37A",4 h
same,dependency of ED50 values on duration of receptor stimulation,"[11]; apomorphine, FIG. 37B",no significant dependency
same,induction of luciferase expression (TRE),[5],not by apomorphine
same,change in luciferase expression/activity,[6],did not bring about any significant change in the luciferase activity
same,induction of luciferase expression (CRE),"[1]; COS-7, 20 μM forskolin or 1 μM apomorphine, 18 h",induced by forskolin and by apomorphine
O=C(c1ccc(F)cc1)C1CCN(CCn2c(=O)[nH]c3ccccc3c2=O)CC1 [ketanserin-tartrate],prevention of agonist-mediated induction,[12]; 10 μM α-methylserotonin-maleate and 10 μM ketanserin-tartrate,prevented
CC(N)Cc1c[nH]c2ccc(O)cc12 (stereo not drawn) [α-methylserotonin-maleate],induction of luciferase expression (CRE),[13],not by the 5-HT2-receptor-agonist α-methylserotonin-maleate
same,induction of luciferase expression (TRE),"[12]; COS-7, 10 ng/ml TPA or 10 μg α-methylserotonin-maleate, 18 h",induced both by TPA and by α-methylserotonin-maleate
same,fold induction at 10 µM,[14],4 to 5
